Experimental data taken from article PMC7614388, “Diversification in the inositol tris/tetrakisphosphate kinase (ITPK) family: crystal structure and enzymology of the outlier AtITPK4” (Biochemical Journal, 2023).

Key:
[1] = target: T1, AtITPK1 (Arabidopsis thaliana, UniProt Q9SBA5); assay: phosphate release assay; format: biochemical; conditions: 1 mM ATP; 10 µM enzyme; no inositol phosphate
T1 construct: gene ITPK1; His tag with 3C cleavage implied
T1 sequence (Q9SBA5 1-319): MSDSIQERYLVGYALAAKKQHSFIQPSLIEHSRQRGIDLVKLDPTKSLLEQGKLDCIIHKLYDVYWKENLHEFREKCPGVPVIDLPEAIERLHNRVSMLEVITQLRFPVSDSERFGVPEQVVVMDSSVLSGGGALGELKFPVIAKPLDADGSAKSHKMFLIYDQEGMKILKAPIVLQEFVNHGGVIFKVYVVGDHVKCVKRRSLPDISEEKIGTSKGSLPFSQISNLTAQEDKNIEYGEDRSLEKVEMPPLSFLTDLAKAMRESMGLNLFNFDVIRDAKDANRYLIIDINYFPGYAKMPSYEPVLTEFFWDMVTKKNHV

[2] = target: T2, AtITPK4 (Arabidopsis thaliana, UniProt O80568); assay: HPLC kinase assay, substrate inhibition fit; format: biochemical; conditions: 1 mM Ins(1,4,6)P3; ATP 0-5 mM; 6 mM MgCl2; 20 mM HEPES pH 7.3; 25 °C; 3 µM enzyme; substrate inhibition at high ATP
T2 construct: gene ITPK4; full-length; pOPINE, non-cleavable C-terminal 6xHis tag kept; Ni-NTA purified; HAD-like domain 1-150, ATP-grasp kinase domain from 151; no evidence of homo-oligomers
T2 sequence (O80568 whole entry, the tested form may be a part): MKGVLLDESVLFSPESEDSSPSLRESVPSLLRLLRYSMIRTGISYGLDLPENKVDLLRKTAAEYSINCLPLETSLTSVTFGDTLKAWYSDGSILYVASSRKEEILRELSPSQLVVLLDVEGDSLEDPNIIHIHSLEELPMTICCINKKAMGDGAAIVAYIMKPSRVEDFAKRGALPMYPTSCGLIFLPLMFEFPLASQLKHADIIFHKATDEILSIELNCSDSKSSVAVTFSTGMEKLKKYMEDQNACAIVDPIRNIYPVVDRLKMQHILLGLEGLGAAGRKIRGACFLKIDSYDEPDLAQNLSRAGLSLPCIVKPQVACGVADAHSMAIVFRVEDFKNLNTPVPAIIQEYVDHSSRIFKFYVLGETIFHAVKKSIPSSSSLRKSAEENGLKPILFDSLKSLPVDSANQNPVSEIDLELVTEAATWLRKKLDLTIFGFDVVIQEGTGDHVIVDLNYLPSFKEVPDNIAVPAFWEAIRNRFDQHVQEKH

Ki [2]: 3.3 mM
Compound: Nc1ncnc2c1ncn2[C@@H]1O[C@H](COP(=O)(O)OP(=O)(O)OP(=O)(O)O)[C@@H](O)[C@H]1O [ATP]
phosphate release assay [1]: AtITPK1 showed much greater phosphate release from ATP in the absence of inositol phosphate substrate
